According to the kinase profiling compilation of Christmann-Franck et al. (2016):

How the values were obtained:
Assay in all cases: radiometric filter-binding kinase assay, Kinase HotSpot
Conditions in all cases: compound 0.5 µM; ATP 10 µM
[1] = target: ACVRL1 (human) (UniProt P37023)
[2] = target: PIM2 (human) (UniProt Q9P1W9)
[3] = target: PIM3 (human) (UniProt Q86V86)
[4] = target: RPS6KA5 KD2 (human) (UniProt O75582)
[5] = target: RPS6KA6 KD1 KD2 (human) (UniProt Q9UK32)
[6] = target: IGF1R (human) (UniProt P08069)
[7] = target: CDK1 CCNA2 (human) (UniProt P06493+P20248)
[8] = target: MAPK13 (human) (UniProt O15264)
[9] = target: MAP3K5 (human) (UniProt Q99683)
[10] = target: MAPK12 (human) (UniProt P53778)
[11] = target: STK33 (human) (UniProt Q9BYT3)
[12] = target: PAK4 (human) (UniProt O96013)
[13] = target: MKNK2 (human) (UniProt Q9HBH9)
[14] = target: EPHA4 (human) (UniProt P54764)
[15] = target: TYK2 JH1 catalytic (human) (UniProt P29597)
[16] = target: PRKCD (human) (UniProt Q05655)
[17] = target: CAMK1 (human) (UniProt Q14012)
[18] = target: SRC (human) (UniProt P12931)
[19] = target: SGK2 (human) (UniProt Q9HBY8)
[20] = target: CDK3 CCNE1 (human) (UniProt Q00526+P24864)
[21] = target: MAP3K3 (human) (UniProt Q99759)
[22] = target: WNK3 (human) (UniProt Q9BYP7)
[23] = target: JAK2 JH1 JH2 (human) (UniProt O60674)
[24] = target: PRKG2 (human) (UniProt Q13237)
[25] = target: MAP3K9 (human) (UniProt P80192)
[26] = target: MAPK1 (human) (UniProt P28482)
[27] = target: CLK1 (human) (UniProt P49759)
[28] = target: CSNK1G3 (human) (UniProt Q9Y6M4)
[29] = target: EPHA7 (human) (UniProt Q15375)
[30] = target: CAMKK1 (human) (UniProt Q8N5S9)
[31] = target: DYRK1B (human) (UniProt Q9Y463)
[32] = target: TSSK1B (human) (UniProt Q9BXA7)
[33] = target: ALK (human) (UniProt Q9UM73)
[34] = target: PRKCG (human) (UniProt P05129)
[35] = target: DDR2 (human) (UniProt Q16832)
[36] = target: FGR (human) (UniProt P09769)
[37] = target: CDK1 CCNB1 (human) (UniProt P06493+P14635)
[38] = target: RAF1 (human) (UniProt P04049)
[39] = target: AKT1 (human) (UniProt P31749)
[40] = target: DYRK3 (human) (UniProt O43781)
[41] = target: NTRK2 (human) (UniProt Q16620)

Sequence of MAP3K9 (human) (P80192 whole entry, looked up): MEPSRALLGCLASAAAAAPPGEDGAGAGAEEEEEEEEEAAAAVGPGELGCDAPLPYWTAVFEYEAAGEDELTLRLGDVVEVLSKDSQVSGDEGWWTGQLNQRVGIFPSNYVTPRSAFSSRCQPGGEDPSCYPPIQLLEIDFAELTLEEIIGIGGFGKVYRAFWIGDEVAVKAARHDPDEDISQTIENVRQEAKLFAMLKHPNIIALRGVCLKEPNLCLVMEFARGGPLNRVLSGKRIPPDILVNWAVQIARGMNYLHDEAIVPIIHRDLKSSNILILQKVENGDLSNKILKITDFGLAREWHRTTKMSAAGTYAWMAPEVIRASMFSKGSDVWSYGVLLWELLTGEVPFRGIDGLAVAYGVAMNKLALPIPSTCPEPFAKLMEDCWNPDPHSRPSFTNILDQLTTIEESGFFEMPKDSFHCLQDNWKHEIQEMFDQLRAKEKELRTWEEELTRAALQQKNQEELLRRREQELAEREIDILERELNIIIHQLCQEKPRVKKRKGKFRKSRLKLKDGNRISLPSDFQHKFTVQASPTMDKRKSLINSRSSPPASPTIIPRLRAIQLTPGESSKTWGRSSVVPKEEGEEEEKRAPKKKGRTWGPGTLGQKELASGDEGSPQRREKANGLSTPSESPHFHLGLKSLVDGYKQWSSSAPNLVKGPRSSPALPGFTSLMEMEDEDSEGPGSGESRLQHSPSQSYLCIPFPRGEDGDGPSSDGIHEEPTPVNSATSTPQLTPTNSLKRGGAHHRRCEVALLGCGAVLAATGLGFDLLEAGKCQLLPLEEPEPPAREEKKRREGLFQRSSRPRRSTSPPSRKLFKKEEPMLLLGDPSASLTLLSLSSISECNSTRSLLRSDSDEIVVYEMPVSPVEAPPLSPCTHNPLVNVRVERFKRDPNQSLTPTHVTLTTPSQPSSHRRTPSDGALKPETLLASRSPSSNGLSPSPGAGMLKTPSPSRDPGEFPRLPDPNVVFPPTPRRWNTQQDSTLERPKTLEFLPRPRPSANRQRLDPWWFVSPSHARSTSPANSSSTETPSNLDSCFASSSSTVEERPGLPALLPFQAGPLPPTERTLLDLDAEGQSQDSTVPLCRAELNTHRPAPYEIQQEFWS
Sequence of IGF1R (human) (P08069 whole entry, looked up): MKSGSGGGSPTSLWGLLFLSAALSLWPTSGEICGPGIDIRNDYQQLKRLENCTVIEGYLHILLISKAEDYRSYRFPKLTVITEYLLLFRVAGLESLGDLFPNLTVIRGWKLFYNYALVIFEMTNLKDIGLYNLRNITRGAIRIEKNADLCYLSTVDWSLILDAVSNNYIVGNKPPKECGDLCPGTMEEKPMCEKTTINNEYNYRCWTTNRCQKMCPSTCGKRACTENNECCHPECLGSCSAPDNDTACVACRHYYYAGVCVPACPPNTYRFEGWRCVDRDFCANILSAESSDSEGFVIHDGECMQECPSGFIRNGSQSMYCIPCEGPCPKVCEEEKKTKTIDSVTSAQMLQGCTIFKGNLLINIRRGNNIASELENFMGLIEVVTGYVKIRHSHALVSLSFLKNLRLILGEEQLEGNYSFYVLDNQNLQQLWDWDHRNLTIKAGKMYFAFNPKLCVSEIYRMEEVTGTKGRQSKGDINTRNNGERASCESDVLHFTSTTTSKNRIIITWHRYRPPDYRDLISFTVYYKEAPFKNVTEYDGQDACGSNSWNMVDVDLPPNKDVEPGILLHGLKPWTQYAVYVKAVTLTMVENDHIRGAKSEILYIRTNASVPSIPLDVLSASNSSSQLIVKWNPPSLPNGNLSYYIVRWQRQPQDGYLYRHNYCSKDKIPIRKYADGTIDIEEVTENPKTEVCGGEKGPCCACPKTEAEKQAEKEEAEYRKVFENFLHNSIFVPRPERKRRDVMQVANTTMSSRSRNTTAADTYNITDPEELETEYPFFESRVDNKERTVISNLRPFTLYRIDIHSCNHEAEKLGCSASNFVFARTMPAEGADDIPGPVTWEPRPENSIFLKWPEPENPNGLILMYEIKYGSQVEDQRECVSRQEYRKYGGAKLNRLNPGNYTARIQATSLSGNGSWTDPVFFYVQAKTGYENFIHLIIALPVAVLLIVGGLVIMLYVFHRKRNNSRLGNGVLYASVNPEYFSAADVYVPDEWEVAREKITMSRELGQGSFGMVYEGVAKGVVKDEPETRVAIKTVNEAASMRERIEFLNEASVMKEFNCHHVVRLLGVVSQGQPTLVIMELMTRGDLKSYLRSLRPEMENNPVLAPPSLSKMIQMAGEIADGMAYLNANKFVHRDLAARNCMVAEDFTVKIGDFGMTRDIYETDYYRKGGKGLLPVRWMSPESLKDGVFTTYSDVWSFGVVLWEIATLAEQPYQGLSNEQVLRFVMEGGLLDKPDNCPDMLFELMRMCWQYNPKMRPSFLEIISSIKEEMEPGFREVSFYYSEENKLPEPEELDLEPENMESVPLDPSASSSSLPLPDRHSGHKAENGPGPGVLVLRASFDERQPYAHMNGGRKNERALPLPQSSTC
Sequence of PIM2 (human) (Q9P1W9 whole entry, looked up): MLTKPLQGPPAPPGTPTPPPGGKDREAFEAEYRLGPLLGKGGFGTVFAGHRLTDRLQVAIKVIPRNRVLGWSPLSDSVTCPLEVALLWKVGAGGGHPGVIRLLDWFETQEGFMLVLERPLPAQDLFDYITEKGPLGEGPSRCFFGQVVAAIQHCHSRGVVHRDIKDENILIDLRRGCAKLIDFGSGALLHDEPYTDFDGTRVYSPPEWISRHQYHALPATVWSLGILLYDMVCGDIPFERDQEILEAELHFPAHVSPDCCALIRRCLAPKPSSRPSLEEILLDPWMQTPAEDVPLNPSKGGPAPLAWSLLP
Sequence of SRC (human) (P12931 whole entry, looked up): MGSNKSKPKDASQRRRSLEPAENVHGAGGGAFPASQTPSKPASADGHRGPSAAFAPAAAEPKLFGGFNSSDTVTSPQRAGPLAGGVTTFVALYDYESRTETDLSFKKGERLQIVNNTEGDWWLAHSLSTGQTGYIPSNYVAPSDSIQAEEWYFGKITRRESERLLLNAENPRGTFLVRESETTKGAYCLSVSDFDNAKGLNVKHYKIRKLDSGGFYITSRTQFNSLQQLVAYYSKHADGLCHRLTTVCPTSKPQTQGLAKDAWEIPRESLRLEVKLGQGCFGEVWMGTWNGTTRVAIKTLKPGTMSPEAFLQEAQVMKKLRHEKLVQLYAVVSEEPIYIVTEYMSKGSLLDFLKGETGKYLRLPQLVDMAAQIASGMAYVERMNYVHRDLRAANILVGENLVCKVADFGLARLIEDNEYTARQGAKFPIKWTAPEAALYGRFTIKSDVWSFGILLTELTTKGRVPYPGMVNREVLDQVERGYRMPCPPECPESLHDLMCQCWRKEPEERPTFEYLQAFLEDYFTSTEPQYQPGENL
Sequence of MAPK12 (human) (P53778 whole entry, looked up): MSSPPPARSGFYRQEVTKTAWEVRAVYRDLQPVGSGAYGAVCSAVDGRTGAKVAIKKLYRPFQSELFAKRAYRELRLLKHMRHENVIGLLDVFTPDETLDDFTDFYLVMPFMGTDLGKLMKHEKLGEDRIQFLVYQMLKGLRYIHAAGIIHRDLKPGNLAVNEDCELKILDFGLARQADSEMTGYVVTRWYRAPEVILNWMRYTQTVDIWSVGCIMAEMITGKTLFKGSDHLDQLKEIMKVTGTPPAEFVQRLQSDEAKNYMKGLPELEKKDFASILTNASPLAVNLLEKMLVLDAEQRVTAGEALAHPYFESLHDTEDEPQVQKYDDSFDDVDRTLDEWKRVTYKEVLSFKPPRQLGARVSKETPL
Sequence of SGK2 (human) (Q9HBY8 whole entry, looked up): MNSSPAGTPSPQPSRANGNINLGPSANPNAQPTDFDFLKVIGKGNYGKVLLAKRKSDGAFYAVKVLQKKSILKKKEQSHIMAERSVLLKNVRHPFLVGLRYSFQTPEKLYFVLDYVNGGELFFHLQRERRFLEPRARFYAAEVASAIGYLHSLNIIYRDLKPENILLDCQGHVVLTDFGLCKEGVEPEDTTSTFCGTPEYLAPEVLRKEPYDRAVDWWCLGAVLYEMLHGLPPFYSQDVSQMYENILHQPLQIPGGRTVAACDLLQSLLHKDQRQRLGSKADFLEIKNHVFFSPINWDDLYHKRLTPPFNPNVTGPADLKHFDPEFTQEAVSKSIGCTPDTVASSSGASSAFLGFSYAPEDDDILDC

Row | Compound | residual activity [1] [%] | residual activity [2] [%] | residual activity [3] [%] | residual activity [4] [%] | residual activity [5] [%] | residual activity [6] [%] | residual activity [8] [%] | residual activity [9] [%] | residual activity [10] [%] | residual activity [11] [%] | residual activity [12] [%] | residual activity [13] [%] | residual activity [14] [%] | residual activity [15] [%] | residual activity [16] [%] | residual activity [17] [%] | residual activity [18] [%] | residual activity [19] [%] | residual activity [20] [%] | residual activity [21] [%] | also measured
1 | Cn1sc(=O)n(Cc2ccccc2)c1=O | 117 | 107 | 120 | 108 | 104 | 97.1 | 97.5 | 91.5 | 102 | 101 | 104 | 92.1 | 110 | 96 | 94.1 | 100 | 95 | 100 | 78.1 | 94.2 | residual activity [7]: 104%; residual activity [22]: 101%; residual activity [23]: 91.6%; residual activity [24]: 108%; residual activity [25]: 99.4%; residual activity [26]: 93.1%; residual activity [27]: 112%; residual activity [28]: 114%; residual activity [29]: 105%; residual activity [30]: 114%; residual activity [31]: 103%; residual activity [32]: 94.4%; residual activity [33]: 94.1%; residual activity [34]: 86.6%; residual activity [35]: 102%; residual activity [36]: 101%; residual activity [37]: 95.7%; residual activity [38]: 97.2%; residual activity [39]: 101%; residual activity [40]: 108%
2 | CN([C@@H](Cc1ccc(OS(=O)(=O)c2cccc3cnccc23)cc1)C(=O)N1CCN(c2ccccc2)CC1)S(=O)(=O)c1cccc2cnccc12 | 103 | 98.5 | 113 | 100 | 100 | 105 | 102 | 99.2 | 92.2 | 97.3 | 94.6 | 104 | 95.4 | 110 | 93 | 105 | 91.3 | 100 | 101 | 96.4 | residual activity [22]: 101%; residual activity [23]: 96.6%; residual activity [24]: 99.5%; residual activity [25]: 104%; residual activity [26]: 95.5%; residual activity [27]: 97.3%; residual activity [28]: 104%; residual activity [29]: 102%; residual activity [30]: 108%; residual activity [31]: 101%; residual activity [32]: 95.4%; residual activity [41]: 103%; residual activity [33]: 96.5%; residual activity [34]: 95.4%; residual activity [35]: 96.9%; residual activity [36]: 99.5%; residual activity [37]: 108%; residual activity [38]: 96.9%; residual activity [39]: 102%; residual activity [40]: 112%
